In the test the target is T1, récepteur du PAF (Oryctolagus cuniculus, UniProt G1TEI7).
T1 construct: préparation membranaire de plaquettes de lapin; from tissue; host or cells: rabbit blood platelets, lysed by freeze/thaw, membrane pellet
Put plainly: Competitive binding of [³H]PAF to rabbit platelet membrane preparations (radioreceptor assay, vacuum filtration). More on the design: species or system lapin. As to the method: - 1 Aliquot de préparation membranaire de plaquettes de lapin (A) - 1 Aliquot de préparation de récepteur du PAF conforme à l'invention (B), - PAF marqué au Tritium, activité spécifique 56 Ci/mmole (DU PONT DE NEMOURS (Boston MA, USA).) - PAF non marqué (BACHEM, Budendorf, Suisse).
Des aliquots de préparations membranaires de plaquettes de lapin (∼100 µg) sont incubés pour un volume final de 200 µl de solution contenant 1 nM de /³H/PAF (15300 cpm) et soit une quantité de PAF non marqué connue (gamme de référence), soit un aliquot de dilution de l'extrait à doser. […]
Les filtres sont placés dans des fioles de comptage avec 4 ml de liquide scintillant (Atomlight NEN). La radioactivité est quantifiée sur compteur à scintillation LKB Rack beta 1214.
La différence entre la quantité de [³H]PAF lié aux membranes en absence et en présence d'un excès de PAF non marqué (1000 x [³H] PAF) est considérée comme liaison spé-cifique maximale (B˙). […]
4.2. […] Le pourcentage de [³H ]PAF lié spécifiquement aux préparations en présence de ces différentes concentrations est déterminé par rapport à la quantité de [³H ]PAF lié spécifiquement en absence de PAF standard non marqué (B/Bo : B : cpm de [³H ]PAF lié aux membranes en pré-sence de PAF standard (liaison non spécifique déduite). Bo : cpm de [³H ]PAF lié aux membranes en absence de PAF standard (liaison non spécifique déduite). […]

T1 sequence (G1TEI7 1-342): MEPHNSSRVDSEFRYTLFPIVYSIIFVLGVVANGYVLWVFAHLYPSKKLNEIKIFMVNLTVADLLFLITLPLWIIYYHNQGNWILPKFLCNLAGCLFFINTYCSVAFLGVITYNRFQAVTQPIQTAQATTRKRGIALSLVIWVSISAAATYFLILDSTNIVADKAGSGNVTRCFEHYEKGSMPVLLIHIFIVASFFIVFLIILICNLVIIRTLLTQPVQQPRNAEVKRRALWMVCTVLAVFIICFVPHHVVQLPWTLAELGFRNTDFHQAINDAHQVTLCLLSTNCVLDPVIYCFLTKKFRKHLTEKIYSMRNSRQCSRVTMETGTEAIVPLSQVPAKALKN

In the case of “1-0-alkyl-2-acétyl-sn-glycérol-3-phosphorylcholine [PAF standard]”, the “ED₅₀ (dose de PAF standard nécessaire pour inhiber 50 % de la liaison spécifique)” value (1 nM [³H]PAF, + 4° C, 1 heure 30, four experiments taken at random) is 0,63 + 0,15 ng/tube.

Regarding `CCCCCCCCCCCCCCCCOC[C@@H](O)COP(=O)([O-])OCC[N+](C)(C)C` [lyso-PAF], the “reconnaissance par le site de liaison utilisé pour le dosage” value (dose maximale testée : 10⁻⁶M, Figure 2 (B/Bo)) is “ne sont pas reconnus”.

(Values after patent EP0345100A1, “Preparation of PAF receptors and method of quantity determination of PAF” (INSTITUT PASTEUR, priority 1988, dated 1989).)
